According to US8450281B2, “Non-immunosuppressive cyclosporin for treatment of Ullrich congenital muscular dystrophy” (Debiopharm S.A., priority 2007, dated 2013):

Key:
[1] = tested on: myoblast cultures from UCMD patients; assay: Mitochondrial TMRM fluorescence (membrane potential) after oligomycin in myoblast cultures from UCMD patients; assay type: cell-based, human; conditions: muscle cell cultures from UCMD patients
Method: To assess whether the anti-apoptotic effects of collagen VI and CsA could be traced to mitochondria, mitochondrial function was studied in living muscle cell cultures. […] Addition of oligomycin was instead followed by mitochondrial depolarization in the cells from all UCMD patients. […] Mitochondrial membrane potential was assessed based on accumulation of tetramethylrhodamine methyl ester (TMRM). It is noted that oligomycin was expected to cause hyperpolarization in healthy, respiring cells in which the mitochondrial membrane potential is maintained by proton pumping by the respiratory chain and the proton electrochemical gradient is used to drive ATP synthesis.
Panels A and B of FIG. 1 show mitochondrial membrane potentials in myoblasts from UCMD patients 1 (A) and 4 (B) as a function of time. Mitochondrial membrane potential was measured based on accumulation of tetramethylrhodamine methyl ester (TMRM). […] The extent of cell and, consequently, mitochondrial loading with potentiometric probes is affected by the activity of the plasma membrane multidrug resistance pump which is inhibited by cyclosporin A. Treatment with cyclosporins may therefore cause an increased mitochondrial fluorescence that can be erroneously interpreted as an increase of mitochondrial membrane potential. […] Data were acquired and analyzed using Cell R software (Olympus). […] Apoptosis was assessed as described before.

[2] = Initial phase I clinical studies, safety of oral doses; assay type: in vivo, human
Method: Initial phase I clinical studies were carried out to assess the safety of oral doses of [D-MeAla]^3-[EtVal]^4-CsA, and to determine the pharmacokinetic profile and safety profile of the drug substance. […] These side effects were not dose-related.

[3] = tested on: muscle cell cultures from UCMD patients and healthy donors; assay: Electron microscopy of mitochondria in muscle cell cultures; assay type: cell-based, human; conditions: for percentage of cells with swollen mitochondria: oligomycin treatment
Source text: The muscle cell cultures established from healthy donors and from patients 1, 2 and 3 were studied by electron microscopy.

[4] = tested on: myoblast cultures from UCMD patients; assay: TUNEL incidence of apoptosis in myoblast cultures from UCMD patients; assay type: cell-based, human; conditions: myoblast cultures from UCMD patients 1-4
Method: Experiments were carried out to experimentally test the existence of a causal link between lack of collagen VI and apoptosis. Myoblast cultures were prepared from muscle biopsies of two unaffected controls and from patients 1, 2, 3 and 4 by enzymatic and mechanical treatment and plating in Dulbecco's modified Eagle's medium (DMEM) supplemented with 20% fetal calf serum, penicillin, streptomycin and amphotericin B (Sigma). To test for apoptosis, cells were fixed in 50% acetone-50% methanol and processed for TUNEL analysis using the Dead End Fluorescence TUNEL System (Promega). Visualization of all nuclei was performed by staining with Hoechst 33258. […] Demir et al. 2002. Giusti et al. 2005.
Panels A and B of FIG. 1 show mitochondrial membrane potentials in myoblasts from UCMD patients 1 (A) and 4 (B) as a function of time. Mitochondrial membrane potential was measured based on accumulation of tetramethylrhodamine methyl ester (TMRM). […] The extent of cell and, consequently, mitochondrial loading with potentiometric probes is affected by the activity of the plasma membrane multidrug resistance pump which is inhibited by cyclosporin A. Treatment with cyclosporins may therefore cause an increased mitochondrial fluorescence that can be erroneously interpreted as an increase of mitochondrial membrane potential. […] Data were acquired and analyzed using Cell R software (Olympus). […]

UCMD and BM patients = assay: Preliminary clinical trial, TMRM assay on muscle biopsies of UCMD and BM patients; assay type: in vivo, human; conditions: daily oral dose of 5 mg/kg for thirty days
Method: Five patients were enroIled, of which four suffered from UCMD and one of BM. The patients had mutation in their COL6A1, COL6A2 or COL6A3 genes, respectively. The trial was designed to test whether treatment with CsA was effective in reducing mitochondrial dysfunction as assessed by the ability of oligomycin to cause mitochondrial depolarization in muscle fibers. Depolarization was detected as a change in TMRM fluorescence. Patients were treated with a daily oral dose of 5 mg/kg CsA for a period of thirty days. Muscle biopsies were taken immediately before and after the treatment period and were processed for TMRM assay.

With `CC(=O)OCOC(=O)CN(CC(=O)OCOC(C)=O)c1ccccc1OCCOc1ccccc1N(CC(=O)OCOC(C)=O)CC(=O)OCOC(C)=O` [BAPTA-AM] as the molecule, how does the “response to oligomycin (mitochondrial depolarization, TMRM)” value [1] read?
Its value is “fully normalized”.

Which tolerability ([2]; oral doses of 50 to 1600 mg in a micro-emulsion in water) does the source give for `C/C=C/C[C@@H](C)[C@@H](O)[C@H]1C(=O)N[C@@H](CC)C(=O)N(C)[C@H](C)C(=O)N(CC)[C@@H](C(C)C)C(=O)N[C@@H](C(C)C)C(=O)N(C)[C@@H](CC(C)C)C(=O)N[C@@H](C)C(=O)N[C@H](C)C(=O)N(C)[C@@H](CC(C)C)C(=O)N(C)[C@@H](CC(C)C)C(=O)N(C)[C@@H](C(C)C)C(=O)N1C` [[D-MeAla]^3-[EtVal]^4-CsA] here?
Its tolerability is “well tolerated”.

What about the side effects ([2]; oral doses of 50 to 1600 mg, not dose-related) of the same molecule?
The side effects was “Mild and short-lived side effects were observed including nausea, vomiting, abdominal pain, and mild headaches”.

Which results are given for `CC[C@H]1/C=C/C=C/C[C@@H](C)[C@H](O)[C@@](C)(O)C(=O)[C@@H](C)[C@H](O)[C@@H](C)C(=O)[C@@H](C)[C@H](O)[C@@H](C)/C=C/C(=O)O[C@@H]2[C@H](C)[C@H](CC1)O[C@]1(CC[C@H](C)[C@H](C[C@@H](C)O)O1)[C@H]2C` [oligomycin]?
percentage of cells with swollen mitochondria ([3]; control (healthy donor) cultures): 4%; percentage of cells with swollen mitochondria ([3]; cultures from UCMD patients): over 40%

Which “occurrence of apoptosis (TUNEL) in the patient samples” value [4] does the source give for cyclosporin A here?
Its value is “fully normalized the occurrence of apoptosis”.

And the “number of cells with swollen mitochondria” value ([3]; UCMD cells, no oligomycin)?
The value was “decreased the number of cells with swoIlen mitochondria to the values observed in cultures from healthy donors”.

And the “percentage of cells bearing swollen mitochondria after oligomycin” value ([3]; oligomycin-treated cultures plus cyclosporin A)?
Its value is “restored to values similar to basal”.

What about the “response to oligomycin (mitochondrial depolarization, TMRM)” value [1] of the same molecule?
The value was “fully normalized”.

And the “mitochondrial dysfunction as assayed by oligomycin-induced depolarization” value (UCMD and BM patients)?
The value was “capable of substantially reducing mitochondrial dysfunction”.

What about the “muscle cells depolarizing on oligomycin, subsequent to treatment” value (UCMD and BM patients; average of five patients, 90% prior to treatment) of the same molecule?
The value was 37%.
